Broadly, the IC50 is the concentration at which inhibition is half-maximal. A high value points to a need for much substance.

This test deals with hENPP2 (Homo sapiens, UniProt Q13822). The test can be described thus: Human ENPP2 (hENPP2) biochemical assay using LPC as substrate. The settings on record: 150 µM LPC (palmitoyl 16:0), 37°C for 30 min. How it is done:
The principle of the assay conswasts in quantifying the released choline with an enzymatic method using choline oxidase and peroxidase. Choline oxydation by choline oxydase releases betaine and peroxide. The latter was quantified in presence of HRP that converts the peroxide detection agent TOOS (CAS# 82692-93-1) and 4-aminoantipyrine into quinoneimine dye. The appearance of quinoneimine dye was measured spectrophotometrically at 555 nm and was proportional to the amount of choline released by ENPP2. Inhibition of ENPP2 results in a decrease of the signal.
Compound IC50 values were determined in a hENPP2 (UniProtKB/SwwassProt Sequence ref Q13822) biochemical assay using LPC as substrate.
5 µL of a dilution series of compound, starting from 50 µM highest concentration, 1/3 dilution, was added to the wells. hENPP2 was used at a final concentration of 1 µg/mL or 3 µg/mL (it will be appreciated by the skilled person that the potency read out was independent of the enzyme concentration). The enzyme was diluted in 50 mM Trwas-HCl pH 8.5, 500 mM NaCl, 5 mM KCl, 10 mM CaCl2, 0.1% fatty acid free BSA in a total volume of 10 µL. The reaction was started by the addition of 10 µL of 150 µM LPC (palmitoyl 16:0; Avanti Polar Lipids, Inc., Cat# 855675) diluted in the same buffer as described above and the mixture was incubated at 37°C for 30 min. The reaction was terminated and choline quantified by the addition of a 25 µL of a mixture containing 0.6 U/mL of choline oxidase, 0.6 U/mL of peroxydase, 1.8 mM TOOS, 1.2 mM amino-antipyrine, 20 mM EGTA (stop-developer solution) diluted in the buffer described above. […] was read on an Envision plate reader (PerkinElmer, Inc.) after an incubation of 30 min at room temperature (excitation 555 nm).
Regarding `O=C(c1ccc2[nH]c(=O)oc2c1)N1CC(N2Cc3cnc(Nc4cc(C(F)(F)F)cc(C(F)(F)F)c4)nc3C2)C1` [compound 6, 6-[3-[2-[3,5-bis(trifluoromethyl)anilino]-5,7-dihydropyrrolo[3,4-d]pyrimidin-6-yl]azetidine-1-carbonyl]-3H-1,3-benzoxazol-2-one], the IC50 is 0.01 to 100 nM. In the case of `Cc1cc(C)cc(Nc2ncc3c(n2)CCN(C2CCN(C(=O)c4ccc5[nH]c(=O)oc5c4)CC2)C3)c1` [compound 7, 6-[4-[2-(3,5-dimethylanilino)-7,8-dihydro-5H-pyrido[4,3-d]pyrimidin-6-yl]piperidine-1-carbonyl]-3H-1,3-benzoxazol-2-one], the IC50 was 100 to 500 nM. `O=C(c1ccc2[nH]c(=O)oc2c1)N1CC(N2CCc3nc(Nc4cc(C(F)(F)F)cc(C(F)(F)F)c4)ncc3C2)C1` [compound 8, 6-[3-[2-[3,5-bis(trifluoromethyl)anilino]-7,8-dihydro-5H-pyrido[4,3-d]pyrimidin-6-yl]azetidine-1-carbonyl]-3H-1,3-benzoxazol-2-one]: the IC50 fell in the range of 0.01 to 100 nM. `O=C(c1ccc2[nH]nnc2c1)N1CC(N2Cc3cnc(Nc4cc(C(F)(F)F)cc(C(F)(F)F)c4)nc3C2)C1` [compound 9, 1H-benzotriazol-5-yl-[3-[2-[3,5-bis(trifluoromethyl)anilino]-5,7-dihydropyrrolo[3,4-d]pyrimidin-6-yl]azetidin-1-yl]methanone] displayed an IC50 of 0.01 to 100 nM.

In the case of `Cc1cc(C)cc(Nc2ncc3c(n2)CN(C2CCN(C(=O)c4ccc5[nH]nnc5c4)CC2)C3)c1` [compound 10, 1H-benzotriazol-5-yl-[4-[2-(3,5-dimethylanilino)-5,7-dihydropyrrolo[3,4-d]pyrimidin-6-yl]-1-piperidyl]methanone], the IC50 lay in the range of 0.01 to 100 nM. `Cc1cc(C)cc(Nc2ncc3c(n2)CN(C2CCN(C(=O)c4ccc5[nH]c(=O)oc5c4)CC2)C3)c1` [compound 11, 6-[4-[2-(3,5-dimethylanilino)-5,7-dihydropyrrolo[3,4-d]pyrimidin-6-yl]piperidine-1-carbonyl]-3H-1,3-benzoxazol-2-one] registered a half-inhibitory concentration (IC50) of 0.01 to 100 nM. As for `Cc1cc(C)cc(Nc2ncc3c(n2)CN(C2CCN(C(=O)c4ccc5[nH]c(=O)oc5c4)C2)C3)c1` (centres unmarked) [compound 12, 6-[3-[2-(3,5-dimethylanilino)-5,7-dihydropyrrolo[3,4-d]pyrimidin-6-yl]pyrrolidine-1-carbonyl]-3H-1,3-benzoxazol-2-one], the 50% inhibitory concentration (IC50) was 0.01 to 100 nM. Next, `Cc1cc(C)cc(Nc2ncc3c(n2)CN(C2CCN(C(=O)c4ccc5[nH]nnc5c4)C2)C3)c1` (centres unmarked) [compound 13, 1H-benzotriazol-5-yl-[3-[2-(3,5-dimethylanilino)-5,7-dihydropyrrolo[3,4-d]pyrimidin-6-yl]pyrrolidin-1-yl]methanone]: 100 to 500 nM. In the case of `O=C(c1ccc2[nH]c(=O)oc2c1)N1CC(N2CCc3nc(Nc4cc(Cl)cc(C(F)(F)F)c4)ncc3C2)C1` [compound 14, 6-[3-[2-[3-chloro-5-(trifluoromethyl)anilino]-7,8-dihydro-5H-pyrido[4,3-d]pyrimidin-6-yl]azetidine-1-carbonyl]-3H-1,3-benzoxazol-2-one], the 50% inhibitory concentration (IC50) was in the range of 0.01 to 100 nM. Regarding `Cc1cc(Cl)cc(Nc2ncc3c(n2)CCN(C2CN(C(=O)c4ccc5[nH]c(=O)oc5c4)C2)C3)c1` [compound 15, 6-[3-[2-(3-chloro-5-methyl-anilino)-7,8-dihydro-5H-pyrido[4,3-d]pyrimidin-6-yl]azetidine-1-carbonyl]-3H-1,3-benzoxazol-2-one], the half-inhibitory concentration (IC50) lay in the range of 0.01 to 100 nM. Next, `Cc1cc(Cl)cc(Nc2ncc3c(n2)CCN(C2CN(C(=O)c4ccc5[nH]nnc5c4)C2)C3)c1` [compound 16, 1H-benzotriazol-5-yl-[3-[2-(3-chloro-5-methyl-anilino)-7,8-dihydro-5H-pyrido[4,3-d]pyrimidin-6-yl]azetidin-1-yl]methanone]: 100 to 500 nM; `O=C(c1ccc2[nH]c(=O)oc2c1)N1CC(N2Cc3cnc(Nc4cc(Cl)cc(C(F)(F)F)c4)nc3C2)C1` [compound 17, 6-[3-[2-[3-chloro-5-(trifluoromethyl)anilino]-5,7-dihydropyrrolo[3,4-d]pyrimidin-6-yl]azetidine-1-carbonyl]-3H-1,3-benzoxazol-2-one]: 0.01 to 100 nM; `Cc1cc(C)cc(Nc2ncc3c(n2)CN(C2CN(C(=O)c4ccc5[nH]nnc5c4)C2)C3)c1` [compound 18, 1H-benzotriazol-5-yl-[3-[2-(3,5-dimethylanilino)-5,7-dihydropyrrolo[3,4-d]pyrimidin-6-yl]azetidin-1-yl]methanone]: 0.01 to 100 nM. For the compound `Cc1cc(C)cc(Nc2ncc3c(n2)CN(C2CN(C(=O)c4ccc5[nH]ncc5c4)C2)C3)c1` [compound 19, [3-[2-(3,5-dimethylanilino)-5,7-dihydropyrrolo[3,4-d]pyrimidin-6-yl]azetidin-1-yl]-(1H-indazol-5-yl)methanone], the IC50 was in the range of 100 to 500 nM.

`Cc1cc(C)cc(Nc2ncc3c(n2)CN(C2CN(C(=O)c4cccc(S(N)(=O)=O)c4)C2)C3)c1` [compound 20, 3-[3-[2-(3,5-dimethylanilino)-5,7-dihydropyrrolo[3,4-d]pyrimidin-6-yl]azetidine-1-carbonyl]benzenesulfonamide] showed a half-maximal inhibitory concentration (IC50) of more than 1000 nM. Regarding `COc1cc(Nc2ncc3c(n2)CN(C2CN(C(=O)c4ccc5[nH]c(=O)oc5c4)C2)C3)cc(OC)c1` [compound 21, 6-[3-[2-(3,5-dimethoxyanilino)-5,7-dihydropyrrolo[3,4-d]pyrimidin-6-yl]azetidine-1-carbonyl]-3H-1,3-benzoxazol-2-one], the half-inhibitory concentration (IC50) fell in the range of 0.01 to 100 nM. Next, `O=C(c1ccc2[nH]nnc2c1)N1CC(N2Cc3cnc(Nc4cc(Cl)cc(C(F)(F)F)c4)nc3C2)C1` [compound 22, 1H-benzotriazol-5-yl-[3-[2-[3-chloro-5-(trifluoromethyl)anilino]-5,7-dihydropyrrolo[3,4-d]pyrimidin-6-yl]azetidin-1-yl]methanone]: 0.01 to 100 nM; `COc1cc(C)cc(Nc2ncc3c(n2)CN(C2CN(C(=O)c4ccc5[nH]nnc5c4)C2)C3)c1` [compound 24, 1H-benzotriazol-5-yl-[3-[2-(3-methoxy-5-methyl-anilino)-5,7-dihydropyrrolo[3,4-d]pyrimidin-6-yl]azetidin-1-yl]methanone]: 0.01 to 100 nM; `Cc1cc(C)cc(Nc2ncc3c(n2)CN(C2CN(C(=O)c4ccc(=O)[nH]c4)C2)C3)c1` [compound 26, 5-[3-[2-(3,5-dimethylanilino) -5,7-dihydropyrrolo[3,4-d]pyrimidin-6-yl]azetidine-1-carbonyl]-1H-pyridin-2-one]: more than 1000 nM. In turn, `COc1cc(Nc2ncc3c(n2)CN(C2CCN(C(=O)c4ccc5[nH]nnc5c4)CC2)C3)cc(OC)c1` [compound 27, 1H-benzotriazol-5-yl-[4-[2-(3,5-dimethoxyanilino)-5,7-dihydropyrrolo[3,4-d]pyrimidin-6-yl]-1-piperidyl]methanone] showed a 50% inhibitory concentration (IC50) of 100 to 500 nM. For `Cc1cc(Nc2ncc3c(n2)CN(C2CN(C(=O)c4ccc5[nH]c(=O)oc5c4)C2)C3)cc(C(F)(F)F)c1` [compound 28, 6-[3-[2-[3-methyl-5-(trifluoromethyl)anilino]-5,7-dihydropyrrolo[3,4-d]pyrimidin-6-yl]azetidine-1-carbonyl]-3H-1,3-benzoxazol-2-one], the half-maximal inhibitory concentration (IC50) lay in the range of 0.01 to 100 nM.

`Cc1cc(Nc2ncc3c(n2)CN(C2CN(C(=O)c4ccc5nn[nH]c5c4)C2)C3)cc(C(F)(F)F)c1` [compound 29, 3H-benzotriazol-5-yl-[3-[2-[3-methyl-5-(trifluoromethyl)anilino]-5,7-dihydropyrrolo[3,4-d]pyrimidin-6-yl]azetidin-1-yl]methanone] returned a half-maximal inhibitory concentration (IC50) of 0.01 to 100 nM. Under `O=C(c1ccc2[nH]nnc2c1)N1CC(N2Cc3cnc(Nc4ccc(C(F)(F)F)cc4)nc3C2)C1` [compound 30, 1H-benzotriazol-5-yl-[3-[2-[4-(trifluoromethyl)anilino]-5,7-dihydropyrrolo[3,4-d]pyrimidin-6-yl]azetidin-1-yl]methanone] stands 0.01 to 100 nM; under `COc1cc(Nc2ncc3c(n2)CN(C2CN(C(=O)c4ccc5[nH]nnc5c4)C2)C3)cc(OC)c1` [compound 31, 1H-benzotriazol-5-yl-[3-[2-(3,5-dimethoxyanilino)-5,7-dihydropyrrolo[3,4-d]pyrimidin-6-yl]azetidin-1-yl]methanone], 0.01 to 100 nM. For `Cc1cc(C)cc(Nc2ncc3c(n2)CN(C2CN(C(=O)c4cc[nH]c(=O)c4)C2)C3)c1` [compound 32, 4-[3-[2-(3,5-dimethylanilino)-5,7-dihydropyrrolo[3,4-d]pyrimidin-6-yl]azetidine-1-carbonyl]-1H-pyridin-2-one], the IC50 was more than 1000 nM. In turn, `Cc1cc(C)cc(Nc2ncc3c(n2)CN(C2CCCN(C(=O)c4ccc5[nH]nnc5c4)C2)C3)c1` (centres unmarked) [compound 33, 1H-benzotriazol-5-yl-[3-[2-(3,5-dimethylanilino)-5,7-dihydropyrrolo[3,4-d]pyrimidin-6-yl]-1-piperidyl]methanone] gave a half-inhibitory concentration (IC50) of more than 1000 nM.

These data come from patent EP3782997A1, “FUSED PYRIMIDINE COMPOUNDS AND PHARMACEUTICAL COMPOSITIONS THEREOF FOR THE TREATMENT OF FIBROTIC DISEASES” (Galapagos N.V., priority 2019, dated 2021).
